PubChem BioAssay AID328 (DTP/NCI, 2004)
Values joined by “and” are separate entries in the source; they are usually repeats but may differ in a detail not shown here. Equal values may be shown once. Toxic doses and inconclusive results are not listed.

Tested on: BDF1 mice, P388 leukemia ip, median survival T/C
Test: NCI In Vivo Anticancer Drug Screen. Data for tumor model P388 Leukemia (intraperitoneal) in B6D2F1 (BDF1) mice
Conditions: endpoint: median survival time, higher = longer survival
Protocol: The antitumor activity of compounds was measured in mice bearing transplantable tumors. Survival or tumor size were measured and the results are expressed as the measurement made in the treated group (T) divided by the measurement made in the vehicle treated control group (C). The tumor model used in this assay is P388 Leukemia (intraperitoneal) in B6D2F1 (BDF1) mice

[1] = dose: 100.0 mg/kg/injection, schedule: Q04DX003 (ip), vehicle: saline with Tween-80
[2] = dose: 200.0 mg/kg/injection, schedule: Q04DX003 (ip), vehicle: saline with Tween-80
[3] = dose: 400.0 mg/kg/injection, schedule: Q04DX003 (ip), vehicle: saline with Tween-80
[4] = dose: 50.0 mg/kg/injection, schedule: Q01DX009 (ip), vehicle: saline with Tween-80

For OC(CBr)c1ccc(Cl)cc1 (stereo not drawn), the T/C [1] was 100 % of control, the T/C [2] was 95 % of control and the T/C [3] was 95 % of control.
In the case of CC(=O)Nc1ccc(S(=O)(=O)c2ccc([N+](=O)[O-])cc2)cc1, the T/C (dose: 50.0 mg/kg/injection, schedule: Q04DX003 (ip), vehicle: saline with Tween-80) is reported as 101 % of control, the T/C [1] is reported as 106 % of control and the T/C [2] is reported as 105 % of control. For the same compound, the T/C [3] was 99 % of control.
In the case of C(/C=C/C=C/Nc1ccc(N=Nc2ccccc2)cc1)=Nc1ccc(N=Nc2ccccc2)cc1, the T/C (dose: 100.0 mg/kg/injection, schedule: Q04DX003 (ip), vehicle: saline) is reported as 90 % of control, the T/C (dose: 200.0 mg/kg/injection, schedule: Q04DX003 (ip), vehicle: saline) is reported as 104 % of control and the T/C (dose: 400.0 mg/kg/injection, schedule: Q04DX003 (ip), vehicle: saline) is reported as 95 % of control.
With Nc1nc(Cl)nc2c1ncn2C1OC(CO)C(O)C1O (stereo not drawn) the T/C (dose: 12.5 mg/kg/injection, schedule: Q01DX010 (ip), vehicle: carboxymethylcellulose (CMC)) was 123 % of control, the T/C (dose: 50.0 mg/kg/injection, schedule: Q01DX010 (ip), vehicle: carboxymethylcellulose (CMC)) was 161 % of control and the T/C (dose: 100.0 mg/kg/injection, schedule: Q01DX010 (ip), vehicle: carboxymethylcellulose (CMC)) was 238 % of control. For the same compound, the T/C (dose: 112.5 mg/kg/injection, schedule: Q01DX009 (ip), vehicle: saline) was 159 % of control and 191 % of control and the T/C (dose: 168.75 mg/kg/injection, schedule: Q01DX009 (ip), vehicle: saline) was 177 % of control.
For Nc1cc(C(F)(F)F)ccc1S(=O)(=O)O, the T/C (dose: 100.0 mg/kg/injection, schedule: Q01DX001 (ip), vehicle: Klucel (hydroxypropylcellulose) (HPC)) was 100 % of control, the T/C (dose: 200.0 mg/kg/injection, schedule: Q01DX001 (ip), vehicle: Klucel (hydroxypropylcellulose) (HPC)) was 100 % of control and the T/C (dose: 400.0 mg/kg/injection, schedule: Q01DX001 (ip), vehicle: Klucel (hydroxypropylcellulose) (HPC)) was 100 % of control.
In the case of CCCCOP(=S)(N1CC1)N1CC1, the T/C (dose: 1.78 mg/kg/injection, schedule: Q01DX009 (ip), vehicle: saline with Tween-80) is reported as 113 % of control, the T/C (dose: 2.66 mg/kg/injection, schedule: Q01DX009 (ip), vehicle: saline with Tween-80) is reported as 150 % of control and the T/C (dose: 2.66 mg/kg/injection, schedule: Q04DX003 (ip), vehicle: saline with Tween-80) is reported as 99 % of control. For the same compound, the T/C (dose: 4.0 mg/kg/injection, schedule: Q01DX009 (ip), vehicle: saline with Tween-80) was 186 % of control, the T/C (dose: 4.0 mg/kg/injection, schedule: Q04DX003 (ip), vehicle: saline with Tween-80) was 95 % of control and the T/C (dose: 6.0 mg/kg/injection, schedule: Q01DX009 (ip), vehicle: saline with Tween-80) was 216 % of control. For the same compound, the T/C (dose: 6.6 mg/kg/injection, schedule: Q01DX009 (ip), vehicle: saline with Tween-80) was 194 % of control, the T/C (dose: 10.0 mg/kg/injection, schedule: Q01DX009 (ip), vehicle: saline with Tween-80) was 211 % of control and the T/C (dose: 11.0 mg/kg/injection, schedule: Q01DX009 (ip), vehicle: saline with Tween-80) was 212 % of control. The T/C (dose: 15.0 mg/kg/injection, schedule: Q01DX009 (ip), vehicle: saline with Tween-80) was 108 % of control, the T/C (dose: 25.0 mg/kg/injection, schedule: Q01DX009 (ip), vehicle: saline with Tween-80) was 111 % of control and the T/C (dose: 37.5 mg/kg/injection, schedule: Q01DX009 (ip), vehicle: saline with Tween-80) was 95 % of control. The T/C [4] was 96 % of control, the T/C [1] was 263 % of control and the T/C [2] was 104 % of control.
For O=C(C1CC2CCC1C2)C1CC2CCC1C2 (stereo not drawn), the T/C (dose: 100.0 mg/kg/injection, schedule: Q01DX009 (ip), vehicle: other) was 95 % of control, the T/C (dose: 100.0 mg/kg/injection, schedule: Q04DX003 (ip), vehicle: Klucel (hydroxypropylcellulose) (HPC)) was 100 % of control and the T/C (dose: 200.0 mg/kg/injection, schedule: Q04DX003 (ip), vehicle: Klucel (hydroxypropylcellulose) (HPC)) was 108 % of control. For the same compound, the T/C (dose: 400.0 mg/kg/injection, schedule: Q04DX003 (ip), vehicle: Klucel (hydroxypropylcellulose) (HPC)) was 104 % of control.
CCOc1ccc(NC(=O)OCCN2CCN(CCc3ccccc3)C(C)C2)cc1 (stereo not drawn) was tested, and the T/C [4] was 94 % of control and the T/C (dose: 100.0 mg/kg/injection, schedule: Q01DX009 (ip), vehicle: saline with Tween-80) was 98 % of control.
CC(=N\[O-])/C(C)=N/O.CC(=N\[O-])/C(C)=N/O.CCCc1ccncc1.[Cl-].[Cl-].[Rh+3] was tested, and the T/C (dose: 12.5 mg/kg/injection, schedule: Q01DX009 (ip), vehicle: saline) was 100 % of control, the T/C (dose: 25.0 mg/kg/injection, schedule: Q01DX009 (ip), vehicle: saline) was 102 % of control and the T/C (dose: 50.0 mg/kg/injection, schedule: Q01DX009 (ip), vehicle: saline) was 105 % of control. The T/C (dose: 100.0 mg/kg/injection, schedule: Q01DX009 (ip), vehicle: saline) was 102 % of control.
